In article PMC8161026, “Synthesis and Anticancer Activity Evaluation of 5-[2-Chloro-3-(4-nitrophenyl)-2-propenylidene]-4-thiazolidinones” (Molecules, 2021):

How the values were obtained:
Breast Cancer subpanel = test: cells
Method in brief: (§1)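 NCI-60 cell lines were exposed for 48 h to compound at 10^−4 to 10^−8 M, with growth measured by SRB staining against untreated controls. GI50, TGI and LC50 were derived per line, and subpanel MG_MID values were averaged with insensitive lines set at the top concentration. Selectivity index is full-panel MG-MID divided by subpanel MG-MID.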

CNS Cancer subpanel = test: cells
Method in brief: as §1

Colon Cancer subpanel = test: cells
Method in brief: as §1

Leukemia subpanel = test: cells
Method in brief: as §1

Melanoma subpanel = test: cells
Method in brief: as §1

[1] = system: Non-Small Cell Lung Cancer subpanel; test: cells
Method in brief: as §1

Ovarian Cancer subpanel = test: cells
Method in brief: as §1

Prostate Cancer subpanel = test: cells
Method in brief: as §1

Renal Cancer subpanel = test: cells
Method in brief: as §1

RXF 393 [2] = conditions: RXF 393 (Renal Cancer), 48 h, SRB
MOLT-4 = test: cells; conditions: Homo sapiens, MOLT-4, 48 h
EKVX = test: cells; conditions: Homo sapiens, 48 h
KM12 = test: cells; conditions: Homo sapiens, KM12, 48 h
RXF 393 [3] = test: cells; conditions: Homo sapiens, RXF 393, 48 h
DU-145 = test: cells; conditions: Homo sapiens, DU-145, 48 h
Colo 205 = test: NCI DTP 60 cell line screen, SRB
HCC-2998 = test: NCI DTP 60 cell line screen, SRB
SF-295 = test: NCI DTP 60 cell line screen, SRB
OVCAR-3 = test: NCI DTP 60 cell line screen, SRB
SK-OV-3 = test: NCI DTP 60 cell line screen, SRB
[4] = Homo sapiens, read-out: MG_MID, GI50
[5] = Homo sapiens, read-out: MG_MID, LC50
[6] = full panel MG_MID / Breast Cancer subpanel MG_MID
[7] = full panel MG_MID / CNS Cancer subpanel MG_MID
[8] = full panel MG_MID / Colon Cancer subpanel MG_MID
[9] = full panel MG_MID / Leukemia subpanel MG_MID
[10] = full panel MG_MID / Melanoma subpanel MG_MID
[11] = full panel MG_MID / Non-Small Cell Lung Cancer subpanel MG_MID
[12] = full panel MG_MID / Ovarian Cancer subpanel MG_MID
[13] = full panel MG_MID / Prostate Cancer subpanel MG_MID
[14] = full panel MG_MID / Renal Cancer subpanel MG_MID

O=C(O)C(Cc1ccccc1)N1C(=O)/C(=C/C(Cl)=C/c2ccc([N+](=O)[O-])cc2)SC1=S (centres unmarked) [Compound 2j, 2-{5-[(Z,2Z)-2-Chloro-3-(4-nitrophenyl)-2-propenylidene]-4-oxo-2-thioxothiazolidin-3-yl}-3-phenylpropanoic acid]
MG_MID, TGI (Breast Cancer subpanel; Breast Cancer panel mean): 37.0 µM
GI50 (Breast Cancer subpanel; [4]): 24.6 µM
CC50 (Breast Cancer subpanel; [5]): 84.6 µM
SI (selectivity index), GI50 (Breast Cancer subpanel; [6]): 0.17
SI (selectivity index), LC50 (Breast Cancer subpanel; [6]): 0.87
SI (selectivity index), TGI (Breast Cancer subpanel; [6]): 1.10
GI50 (CNS Cancer subpanel; [4]): 2180 nM
CC50 (CNS Cancer subpanel; [5]): 7.21 µM
SI (selectivity index), GI50 (CNS Cancer subpanel; [7]): 1.88
SI (selectivity index), LC50 (CNS Cancer subpanel; [7]): 10.25
SI (selectivity index), TGI (CNS Cancer subpanel; [7]): 11.53
MG_MID, TGI (Colon Cancer subpanel; Colon Cancer panel mean): 18.7 µM
GI50 (Colon Cancer subpanel; [4]): 2190 nM
CC50 (Colon Cancer subpanel; [5]): 67.4 µM
SI (selectivity index), GI50 (Colon Cancer subpanel; [8]): 1.87
SI (selectivity index), LC50 (Colon Cancer subpanel; [8]): 1.10
SI (selectivity index), TGI (Colon Cancer subpanel; [8]): 2.17
TI (Therapeutic Index) (Leukemia subpanel; GI50 (normal blood lymphocyte)/GI50 (Leukemia Panel)): 16.60
GI50 (Leukemia subpanel; [4]): 2950 nM
CC50 (Leukemia subpanel; [5]): > 100 µM
MG_MID, TGI (Leukemia subpanel; Leukemia panel mean): >100 µM
SI (selectivity index), GI50 (Leukemia subpanel; [9]): 1.39
SI (selectivity index), LC50 (Leukemia subpanel; [9]): <0.74
SI (selectivity index), TGI (Leukemia subpanel; [9]): <0.41
GI50 (Melanoma subpanel; [4]): 2000 nM
CC50 (Melanoma subpanel; [5]): 50.6 µM
MG_MID, TGI (Melanoma subpanel; Melanoma panel mean): 17.9 µM
SI (selectivity index), GI50 (Melanoma subpanel; [10]): 2.05
SI (selectivity index), LC50 (Melanoma subpanel; [10]): 1.46
SI (selectivity index), TGI (Melanoma subpanel; [10]): 2.27
GI50 [1, 4]: 13.1 µM
CC50 [1, 5]: 92.9 µM
MG_MID, TGI ([1]; Non-Small Cell Lung Cancer panel mean): 36.9 µM
SI (selectivity index), GI50 [1, 11]: 0.31
SI (selectivity index), LC50 [1, 11]: 0.80
SI (selectivity index), TGI [1, 11]: 1.10
GI50 (Ovarian Cancer subpanel; [4]): 3000 nM
CC50 (Ovarian Cancer subpanel; [5]): 84.5 µM
MG_MID, TGI (Ovarian Cancer subpanel; Ovarian Cancer panel mean): 68.6 µM
SI (selectivity index), GI50 (Ovarian Cancer subpanel; [12]): 1.36
SI (selectivity index), LC50 (Ovarian Cancer subpanel; [12]): 0.87
SI (selectivity index), TGI (Ovarian Cancer subpanel; [12]): 0.59
GI50 (Prostate Cancer subpanel; [4]): 2300 nM
CC50 (Prostate Cancer subpanel; [5]): 55.9 µM
MG_MID, TGI (Prostate Cancer subpanel; Prostate Cancer panel mean): 6.27 µM
SI (selectivity index), GI50 (Prostate Cancer subpanel; [13]): 1.78
SI (selectivity index), LC50 (Prostate Cancer subpanel; [13]): 1.32
SI (selectivity index), TGI (Prostate Cancer subpanel; [13]): 6.48
GI50 (Renal Cancer subpanel; [4]): 2030 nM
CC50 (Renal Cancer subpanel; [5]): 42.6 µM
MG_MID, TGI (Renal Cancer subpanel; Renal Cancer panel mean): 27.8 µM
SI (selectivity index), GI50 (Renal Cancer subpanel; [14]): 2.01
SI (selectivity index), LC50 (Renal Cancer subpanel; [14]): 1.73
SI (selectivity index), TGI (Renal Cancer subpanel; [14]): 1.46
TGI (RXF 393 [2]): 3.02 µM
GI50 (MOLT-4): 3.14 µM
CC50 (MOLT-4; read-out: LC50): > 100 µM
GI50 (EKVX): 2590 nM
CC50 (EKVX; read-out: LC50): > 100 µM
GI50 (KM12): 2060 nM
CC50 (KM12; read-out: LC50): 9.16 µM
GI50 (RXF 393 [3]): 1540 nM
CC50 (RXF 393 [3]; read-out: LC50): 5.93 µM
GI50 (DU-145): 2060 nM
CC50 (DU-145; read-out: LC50): 11.7 µM
TGI (Colo 205; Colo 205 (Colon Cancer), 48 h, SRB): > 100 µM
GI50 (Colo 205; Homo sapiens, COLO 205, 48 h): 2450 nM
CC50 (Colo 205; Homo sapiens, COLO 205, 48 h, read-out: LC50): > 100 µM
TGI (HCC-2998; HCC-2998 (Colon Cancer), 48 h, SRB): 3.50 µM
GI50 (HCC-2998; Homo sapiens, HCC 2998, 48 h): 1960 nM
CC50 (HCC-2998; Homo sapiens, HCC 2998, 48 h, read-out: LC50): 6.27 µM
GI50 (SF-295; Homo sapiens, SF-295, 48 h): 2590 nM
CC50 (SF-295; Homo sapiens, SF-295, 48 h, read-out: LC50): > 100 µM
TGI (SF-295; SF-295 (CNS Cancer), 48 h, SRB): 7.85 µM
GI50 (OVCAR-3; Homo sapiens, OVCAR-3, 48 h): 1760 nM
CC50 (OVCAR-3; Homo sapiens, OVCAR-3, 48 h, read-out: LC50): 6.98 µM
TGI (OVCAR-3; OVCAR-3 (Ovarian Cancer), 48 h, SRB): 3.51 µM
GI50 (SK-OV-3; Homo sapiens, SK-OV-3, 48 h): 4.13 µM
CC50 (SK-OV-3; Homo sapiens, SK-OV-3, 48 h, read-out: LC50): > 100 µM
TGI (SK-OV-3; SK-OV-3 (Ovarian Cancer), 48 h, SRB): > 100 µM
